Read-outs that look alike come from different tables or passages of the source.
Assay: Pharmacokinetic studies in human, Compound I in plasma by LC/MS/MS
Assay type: in vivo
Details: for Cmax / Tmax / AUC(0-inf) / half-life / Vd / clearance: human, plasma
Description: Pharmacokinetic studies and dose escalation studies were conducted in adult patients with metastatic, recurrent, locally, advanced, or unresectable solid malignancy (patients with histologically and/or cytologically confirmed solid malignancy), who received prior anti-cancer treatment(s) until disease progression, at 10 different dose levels of Compound I. Groups 1-7 were administered intravenously on days 1 and 8 of a 4-week cycle at 50, 100, 150, 200, 250, 325, and 475 mg/m^2 (lyophilized formulation), respectively. Groups 8-10 were administered intravenously on days 1,8, and 15 of a 4-week cycle at 325, 475, and 650 mg/m^2 (lyophilized formulation), respectively. Each patient received each dose over 1 hour by IV infusion on days described above.
They lyophilized formulation was reconstituted with 5% glucose in sterile water, or similar biologically acceptable fluid, for IV infusion.
For patients in Groups 1-7, blood samples were typically collected at Day 1 at pre-infusion (t=−1 h), during infusion at about 30 minutes (t=−0.5 h), immediately post infusion (t=0 h), 30 min post-infusion, 1 h post-infusion, 2 h post-infusion, 4 h post-infusion, and 6 h post-infusion, as well as at about 24 h post-infusion, 48 h post-infusion, and 72 h post-infusion. On Day 8, blood samples were typically collected at pre-infusion (t=−1 h), during infusion at about 30 minutes (t=−0.5 h), immediately post infusion (t=0 h), 30 min post-infusion, 1 h post-infusion, 2 h post-infusion, 4 h post-infusion, and 6 h post-infusion, as well as at about 24 h post-infusion, and 168 h post-infusion (Day 15).
For patients in Groups 8-10, blood samples were typically collected at Day 1 at pre-infusion (t=−1 h), during infusion at about 30 minutes (t=−0.5 h), immediately post infusion (t=0 h), 30 min post-infusion, 1 h post-infusion, 2 h post-infusion, 4 h post-infusion, and 6 h post-infusion, as well as at about 24 h post-infusion, 48 h post-infusion, and 72 h post-infusion. On Day 8, blood samples were typically collected at pre-infusion (t=−1 h). On Day 15, blood samples were typically collected at pre-infusion (t=−1 h), during infusion at about 30 minutes (t=−0.5 h), immediately post infusion (t=0 h), 30 min post-infusion, 1 h post-infusion, 2 h post-infusion, 4 h post-infusion, and 6 h post-infusion, as well as at about 24 h post-infusion, and 168 h post-infusion (Day 22).
Levels of Compound I in patient's plasma were analyzed by liquid chromatography tandem mass spectrometry (LC/MS/MS) assay. Experimental procedures of the validated methods are summarized below. The pharmacokinetic parameters after first dose and second dose for Groups 1-7 and after first dose and third dose for Groups 8-10 are shown in Tables 2A-2J. In Tables 2A-2J: SD=standard deviation; Cmax=maximum observed concentration; D=dose; Tmax=time to maximum observed concentration; T1/2=elimination half-life; Vd=volume of distribution; CL=drug clearance; and AUC∞=area under the concentration-time curve from time zero to infinity (total exposure).
The concentrations of Compound I in human plasma samples collected from subjects of as discussed above. Compound I concentrations in plasma samples were measured based on 9 levels of calibration standards from 5.00 to 5000 ng/mL, and 3 levels of QC at 15.0 ng/mL (low), 2500 ng/mL (mid), and 4000 ng/mL (high).
Two reference standard master stock solutions of Compound I were prepared by dissolving the Compound 1 reference standard with 50:50:0.1 ACN:diH2O:FA (v/v/v) and sonicating for 7 minutes (diH2O=deionized water). The resulting solutions were further diluted with 50:50:0.1 ACN:diH2O:FA (v/v/v) into a series of working stock solutions (WSS) for spiking of Compound I calibration standards and QC samples. The master stock solutions were prepared fresh on the day of assay, or stored at nominal 2° C. to 8° C. for later use. Master stock solutions were used within the stability timeframe. […]

[1] = Group 1, 50 mg/m^2 IV, Day 1, mean, n = 4
[2] = Group 1, 50 mg/m^2 IV, Day 8, mean, n = 3
[3] = Group 2, 100 mg/m^2 IV, Day 8, mean, n = 3
[4] = Group 3, 150 mg/m^2 IV, Day 1, mean, n = 4
[5] = Group 3, 150 mg/m^2 IV, Day 8, mean, n = 4
[6] = Group 4, 200 mg/m^2 IV, Day 1, mean, n = 4
[7] = Group 4, 200 mg/m^2 IV, Day 8, mean, n = 4
[8] = Group 5, 250 mg/m^2 IV, Day 1, mean, n = 3
[9] = Group 5, 250 mg/m^2 IV, Day 8, mean, n = 3
[10] = Group 6, 325 mg/m^2 IV, Day 1, mean, n = 3
[11] = Group 6, 325 mg/m^2 IV, Day 8, mean, n = 3
[12] = Group 7, 475 mg/m^2 IV, Day 1, mean, n = 3
[13] = Group 7, 475 mg/m^2 IV, Day 8, mean, n = 3
[14] = Group 9, 475 mg/m^2 IV, Day 1, mean, n = 5
[15] = Group 10, 650 mg/m^2 IV, Day 1, mean, n = 5
[16] = Group 10, 650 mg/m^2 IV, Day 15, mean, n = 5
[17] = intravenous, Groups 8-10, Day 1, range of group means
[18] = iv, 50 mg/m2, Group 1, 50 mg/m^2 IV, Day 1, mean, n = 4
[19] = iv, 50 mg/m2, Group 1, 50 mg/m^2 IV, Day 8, mean, n = 3
[20] = iv, 100 mg/m2, Group 2, 100 mg/m^2 IV, Day 1, mean, n = 4
[21] = iv, 100 mg/m2, Group 2, 100 mg/m^2 IV, Day 8, mean, n = 3
[22] = iv, 150 mg/m2, Group 3, 150 mg/m^2 IV, Day 1, mean, n = 4

AUC∞/D [1]: 170 ng·h/mL/mg
Cmax/D [1]: 8.14 ng/mL/mg
AUC∞/D [2]: 94.9 ng·h/mL/mg
Cmax/D [2]: 7.23 ng/mL/mg
AUC∞/D (Group 2, 100 mg/m^2 IV, Day 1, mean, n = 3): 38.3 ng·h/mL/mg
Cmax/D (Group 2, 100 mg/m^2 IV, Day 1, mean, n = 4): 5.94 ng/mL/mg
AUC∞/D [3]: 47.4 ng·h/mL/mg
Cmax/D [3]: 3.97 ng/mL/mg
AUC∞/D [4]: 84.5 ng·h/mL/mg
Cmax/D [4]: 5.43 ng/mL/mg
AUC∞/D [5]: 91.1 ng·h/mL/mg
Cmax/D [5]: 5.49 ng/mL/mg
AUC∞/D [6]: 42.7 ng·h/mL/mg
Cmax/D [6]: 26.9 ng/mL/mg
AUC∞/D [7]: 44.5 ng·h/mL/mg
Cmax/D [7]: 3.27 ng/mL/mg
AUC∞/D [8]: 48.0 ng·h/mL/mg
Cmax/D [8]: 3.15 ng/mL/mg
AUC∞/D [9]: 64.6 ng·h/mL/mg
Cmax/D [9]: 1.87 ng/mL/mg
AUC∞/D [10]: 46.9 ng·h/mL/mg
Cmax/D [10]: 2.14 ng/mL/mg
AUC∞/D [11]: 57.8 ng·h/mL/mg
Cmax/D [11]: 2.09 ng/mL/mg
AUC∞/D [12]: 44.0 ng·h/mL/mg
Cmax/D [12]: 2.48 ng/mL/mg
AUC∞/D [13]: 44.1 ng·h/mL/mg
Cmax/D [13]: 2.15 ng/mL/mg
AUC∞/D (Group 8, 325 mg/m^2 IV, Day 1, mean, n = 3): 52.1 ng·h/mL/mg
Cmax/D (Group 8, 325 mg/m^2 IV, Day 1, mean, n = 4): 2.04 ng/mL/mg
Cmax/D (Group 8, 325 mg/m^2 IV, Day 15, mean, n = 4): 35.5 ng/mL/mg
AUC∞/D [14]: 42.7 ng·h/mL/mg
Cmax/D [14]: 2.01 ng/mL/mg
AUC∞/D (Group 9, 475 mg/m^2 IV, Day 15, mean, n = 4): 39.8 ng·h/mL/mg
Cmax/D (Group 9, 475 mg/m^2 IV, Day 15, mean, n = 5): 3.34 ng/mL/mg
AUC∞/D [15]: 46.5 ng·h/mL/mg
Cmax/D [15]: 2.61 ng/mL/mg
AUC∞/D [16]: 48.6 ng·h/mL/mg
Cmax/D [16]: 3.44 ng/mL/mg
Cmax (intravenous, 200 mg/m2, Groups 1-7, Day 1, range of group means (200 mg/m^2 outlier apart)): 728 to 1940 ng/mL
Cmax (intravenous, 325 mg/m2, Groups 8-10, Day 15, range of group means (325 mg/m^2 outlier apart)): 2870 to 4170 ng/mL
Tmax (intravenous, Groups 1-7, 50 to 475 mg/m^2, Day 1, range of group means): 0.508 to 1.19 h
AUC(0-inf) (intravenous, Groups 1-7, Day 1, range of group means, read-out: Total exposures (AUC∞)): 6650 to 36200 ng·h/mL
half-life (intravenous, Groups 1-7, Day 1 dose, range of group means, read-out: Apparent elimination half-lives): 37.3 to 81.8 h
Cmax (intravenous, Groups 1-7, Day 8, range of group means): 642 to 1710 ng/mL
AUC(0-inf) (intravenous, Groups 1-7, Day 8, range of group means, read-out: Total exposures (AUC∞)): 9120 to 35400 ng·h/mL
half-life (intravenous, Groups 1-7, Day 8 dose, range of group means, read-out: Apparent elimination half-lives): 42.6 to 96.9 h
Cmax [17]: 1140 to 3080 ng/mL
Tmax [17]: 0.767 to 1.18 h
AUC(0-inf) (intravenous, Groups 8-10, Day 1, range of group means, read-out: Total exposures (AUC∞)): 29100 to 57500 ng·h/mL
half-life (intravenous, Groups 8-10, Day 1 dose, range of group means, read-out: Apparent elimination half-lives): 61.5 to 122 h
AUC(0-inf) (intravenous, Groups 8-10, Day 15, range of group means, read-out: Total exposures (AUC∞)): 32500 to 62200 ng·h/mL
half-life (intravenous, Groups 8-10, Day 15 dose, range of group means, read-out: Apparent elimination half-lives): 59 to 93.6 h
Cmax [18]: 728 ng/mL
Tmax [18]: 0.758 h
Vd [18]: 866 L
clearance [18]: 265 mL/min
AUC(0-inf) (iv, 50 mg/m2, Group 1, 50 mg/m^2 IV, Day 1, mean, n = 4, read-out: AUC∞): 16300 ng·h/mL
half-life (iv, 50 mg/m2, Group 1, 50 mg/m^2 IV, Day 1, mean, n = 4, read-out: T1/2 (converted)): 60.1 h
Cmax [19]: 642 ng/mL
Tmax [19]: 1.01 h
Vd [19]: 752 L
clearance [19]: 275 mL/min
AUC(0-inf) (iv, 50 mg/m2, Group 1, 50 mg/m^2 IV, Day 8, mean, n = 3, read-out: AUC∞): 9120 ng·h/mL
half-life (iv, 50 mg/m2, Group 1, 50 mg/m^2 IV, Day 8, mean, n = 3, read-out: T1/2 (converted)): 42.6 h
Vd (iv, 100 mg/m2, Group 2, 100 mg/m^2 IV, Day 1, mean, n = 3): 1400 L
AUC(0-inf) (iv, 100 mg/m2, Group 2, 100 mg/m^2 IV, Day 1, mean, n = 3, read-out: AUC∞): 6650 ng·h/mL
half-life (iv, 100 mg/m2, Group 2, 100 mg/m^2 IV, Day 1, mean, n = 3, read-out: T1/2 (converted)): 37.3 h
Cmax [20]: 1090 ng/mL
Tmax [20]: 0.508 h
Cmax [21]: 804 ng/mL
Tmax [21]: 0.7 h
Vd [21]: 1850 L
AUC(0-inf) (iv, 100 mg/m2, Group 2, 100 mg/m^2 IV, Day 8, mean, n = 3, read-out: AUC∞): 9160 ng·h/mL
half-life (iv, 100 mg/m2, Group 2, 100 mg/m^2 IV, Day 8, mean, n = 3, read-out: T1/2 (converted)): 60.4 h
Cmax [22]: 1230 ng/mL
Tmax [22]: 0.65 h
Vd [22]: 900 L
clearance [22]: 252 mL/min
AUC(0-inf) (iv, 150 mg/m2, Group 3, 150 mg/m^2 IV, Day 1, mean, n = 4, read-out: AUC∞): 20000 ng·h/mL
half-life (iv, 150 mg/m2, Group 3, 150 mg/m^2 IV, Day 1, mean, n = 4, read-out: T1/2 (converted)): 48.1 h
Cmax (iv, 150 mg/m2, Group 3, 150 mg/m^2 IV, Day 8, mean, n = 4): 1270 ng/mL
SMILES: Cc1cnc(CNC(=O)c2c(=O)c3ccc(N4CCCN(C)CC4)nc3n3c2sc2ccccc23)cn1 [Compound I, 2-(4-Methyl-[1,4]diazepan-1-yl)-5-oxo-5H-7-thia-1,11b-diaza-benzo[c]fluorene-6-carboxylic acid (5-methyl-pyrazin-2-ylmethyl)-amide]
Plasma kinetic behavior (all dose levels, Groups 1-10): semi-logarithmic biphasic kinetic behavior

Reference: patent publication US20210046071A1, “TETRACYCLIC COMPOUNDS AND THEIR SALTS, COMPOSITIONS, AND METHODS FOR THEIR USE” (Senhwa Biosciences, Inc., priority 2019, published 2021)
